Measured values from ChEMBL document CHEMBL1156934, “Synthesis and SAR of thiazolidinedione derivatives as 15-PGDH inhibitors” (Bioorg Med Chem, 2010).

Molecular target: T1, 15-hydroxyprostaglandin dehydrogenase [NAD(+)] (Homo sapiens, UniProt P15428)
T1 sequence (P15428 whole entry): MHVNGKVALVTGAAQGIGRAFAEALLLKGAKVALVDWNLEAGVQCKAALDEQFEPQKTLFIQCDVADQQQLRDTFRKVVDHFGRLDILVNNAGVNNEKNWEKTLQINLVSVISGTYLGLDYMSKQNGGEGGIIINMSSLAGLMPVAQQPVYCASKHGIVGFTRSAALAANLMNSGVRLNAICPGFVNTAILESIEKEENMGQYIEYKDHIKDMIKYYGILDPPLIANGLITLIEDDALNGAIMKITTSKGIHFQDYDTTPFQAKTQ
Assay: Inhibition of human 15PGDH expressed in Escherichia coli BL-21 by fluorescence spectrophotometry

| Structure (SMILES) | IC50 [nM] |
| --- | --- |
| O=C1N=C(O)S/C1=C\c1ccc(OCCc2cccs2)cc1 | 31 |
| O=C1N=C(O)S/C1=C\c1ccc(OCCNC2CCCCC2)cc1 | 3720 |
| Cc1ncsc1CCOc1ccc(/C=C2\SC(O)=NC2=O)cc1 | 636 |
| Cc1ccc(COc2ccc(/C=C3\SC(O)=NC3=O)cc2)cc1 | 232 |
| O=C1NC(=O)/C(=C/c2ccc(OCCC3CCCCO3)cc2)S1 (stereo unspecified) | 750 |
| O=C1NC(=O)/C(=C/c2ccc(OCc3cccs3)cc2)S1 | 287 |
| O=C1N=C(O)S/C1=C\c1ccc(OCc2ccsc2)cc1 | 429 |
| O=C1NC(=O)/C(=C/c2ccc(OCCC3CCCC3)cc2)S1 | 116 |
| O=C1S/C(=C\c2ccc(OCCC3CCCCC3)cc2)C(=O)N1CCO | 526 |
| O=C1NC(=O)/C(=C\c2ccc(OCC3COc4ccccc4O3)cc2)S1 (stereo unspecified) | 172 |
| O=C1NC(=O)/C(=C/c2ccc(OCCN3CCOCC3)cc2)S1 | 713 |
| CC(C)OCCOc1ccc(/C=C2\SC(O)=NC2=O)cc1 | 1250 |
| O=C1N=C(O)S/C1=C\c1ccc(OCCc2ccccn2)cc1 | 660 |
| CC1CCC(COc2ccc(/C=C3\SC(O)=NC3=O)cc2)CC1 (stereo unspecified) | 52 |
| COC(=O)C1CCC(COc2ccc(/C=C3\SC(=O)NC3=O)cc2)CC1 (stereo unspecified) | 620 |
| O=C1NC(=O)/C(=C\c2ccc(OCc3ccc(-c4ccccc4)cc3)cc2)S1 | 814 |
| O=C1N=C(O)S/C1=C\c1ccc(OCCN2CCS(=O)(=O)CC2)cc1 | 274 |
| O=C1N=C(O)S/C1=C\c1ccc(OCCN2CCCCC2)cc1 | 1440 |
| O=C1N=C(O)S/C1=C\c1ccc(OCCCN2CCS(=O)(=O)CC2)cc1 | 1960 |
| O=C1NC(=O)/C(=C/c2ccc(OCc3ccco3)cc2)S1 | 893 |
| O=C1NC(=O)/C(=C/c2ccc(OCCC3CCCCC3)cc2)N1 | 865 |
| O=C1N=C(O)S/C1=C\c1ccc(OCc2ccc3c(c2)OCO3)cc1 | 252 |
| COc1ccc(COc2ccc(/C=C3\SC(=O)NC3=O)cc2)cc1 | 529 |
| O=C1C/C(=C\c2ccc(OCCC3CCCCC3)cc2)C(=O)N1 | 3790 |
| O=C1NC(=O)/C(=C/c2ccc(OCCc3ccsc3)cc2)S1 | 60 |
| O=C1NC(=O)/C(=C/c2ccc(OCC3CCCC3)cc2)S1 | 45 |
